Target: human IRAK4 (Homo sapiens (Human), UniProt Q9NWZ3)
Assay: IRAK4 kinase inhibition, Transcreener fluorescence polarization ADP assay
Type: biochemical
Conditions: recombinant full-length His6-IRAK4; 125 uM ATP; 90 min; Ki computed using ATP Km 642 uM
Experimental: Compounds were assayed for inhibition of human IRAK4 and IRAK1 catalytic activity using recombinant enzyme produced from insect cells. Full-length IRAK4 protein, carrying an N-terminal His6-Tag, was obtained from Life Technologies (Carlsbad, Calif., USA). The IRAK1 construct was produced internally and was comprised of IRAK1 residues Arg194 to Ser712, preceded by an NH2-terminal His6 tag and the coding sequence for glutathione-S-transferase.

Sequence of human IRAK4 (Q9NWZ3 whole entry): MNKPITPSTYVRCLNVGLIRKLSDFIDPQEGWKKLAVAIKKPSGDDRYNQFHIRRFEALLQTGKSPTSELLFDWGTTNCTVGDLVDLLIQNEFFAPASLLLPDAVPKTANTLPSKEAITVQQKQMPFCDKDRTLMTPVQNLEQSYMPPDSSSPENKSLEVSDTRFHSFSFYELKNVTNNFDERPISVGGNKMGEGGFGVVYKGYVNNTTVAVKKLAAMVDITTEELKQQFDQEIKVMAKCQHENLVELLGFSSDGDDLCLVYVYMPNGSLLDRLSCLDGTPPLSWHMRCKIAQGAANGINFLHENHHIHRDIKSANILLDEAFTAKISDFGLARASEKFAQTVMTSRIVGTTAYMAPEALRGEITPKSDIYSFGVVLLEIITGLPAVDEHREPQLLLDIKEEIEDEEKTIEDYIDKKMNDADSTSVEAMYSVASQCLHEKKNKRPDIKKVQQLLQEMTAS

In the case of `CN1CCC2(CC1)Cc1cc(NC(=O)c3cnn4cccnc34)c(N3CCOCC3)cc1O2` [Example 152, N-(1′-Methyl-6-morpholino-3H-spiro[benzofuran-2,4′-piperidine]-5-yl)pyrazolo[1,5-a]pyrimidine-3-carboxamide], the Ki is reported as 12 nM.
With `O=C(Nc1cc2c(cc1N1CCOCC1)O[C@](CO)(C(F)(F)F)C2)c1cnn2cccnc12` [Example 153, (R)—N-(2-(hydroxymethyl)-6-morpholino-2-(trifluoromethyl)-2,3-dihydrobenzofuran-5-yl)pyrazolo[1,5-a]pyrimidine-3-carboxamide] the Ki was 14 nM.
In the case of `O=C(Nc1cc2c(cc1N1CCOCC1)O[C@@](CO)(C(F)(F)F)C2)c1cnn2cccnc12` [Example 154, (S)—N-(2-(hydroxymethyl)-6-morpholino-2-(trifluoromethyl)-2,3-dihydrobenzofuran-5-yl)pyrazolo[1,5-a]pyrimidine-3-carboxamide], the Ki is reported as 9.3 nM.
`C[C@]1(COC(F)F)Cc2cc(NC(=O)c3cnn4cccnc34)c(N3CCOCC3)cc2O1` [Example 155, (R)—N-(2-((difluoromethoxy)methyl)-2-Methyl-6-morpholino-2,3-dihydrobenzofuran-5-yl)pyrazolo[1,5-a]pyrimidine-3-carboxamide] was tested, and the Ki was 22 nM.
Work on `C[C@@]1(COC(F)F)Cc2cc(NC(=O)c3cnn4cccnc34)c(N3CCOCC3)cc2O1` [Example 156, (S)—N-(2-((difluoromethoxy)methyl)-2-Methyl-6-morpholino-2,3-dihydrobenzofuran-5-yl)pyrazolo[1,5-a]pyrimidine-3-carboxamide] yielded a Ki of 27 nM.
`CC(C)(O)[C@@]1(C)Cc2cc(NC(=O)c3cnn4cccnc34)c(N3CCOCC3)cc2O1` [Example 157, (R)—N-(2-(2-Hydroxypropan-2-yl)-2-methyl-6-morpholino-2,3-dihydrobenzofuran-5-yl)pyrazolo[1,5-a]pyrimidine-3-carboxamide] was tested, and the Ki was 8.8 nM.
Compound `CC(C)(O)[C@]1(C)Cc2cc(NC(=O)c3cnn4cccnc34)c(N3CCOCC3)cc2O1` [Example 158, (S)—N-(2-(2-Hydroxypropan-2-yl)-2-methyl-6-morpholino-2,3-dihydrobenzofuran-5-yl)pyrazolo[1,5-a]pyrimidine-3-carboxamide] has a Ki of 27 nM.
For `C[C@]1(C2CC2)Cc2cc(NC(=O)c3cnn4cccnc34)c(N3CCN(CC(F)F)CC3)cc2O1` [Example 159, (R)—N-(2-Cyclopropyl-6-(4-(2,2-difluoroethyl)piperazin-1-yl)-2-methyl-2,3-dihydrobenzofuran-5-yl)pyrazolo[1,5-a]pyrimidine-3-carboxamide], the Ki was 4.4 nM.
Work on `C[C@@]1(C2CC2)Cc2cc(NC(=O)c3cnn4cccnc34)c(N3CCN(CC(F)F)CC3)cc2O1` [Example 160, (S)—N-(2-Cyclopropyl-6-(4-(2,2-difluoroethyl)piperazin-1-yl)-2-methyl-2,3-dihydrobenzofuran-5-yl)pyrazolo[1,5-a]pyrimidine-3-carboxamide] yielded a Ki of 4.8 nM.
In the case of `C[C@]1(C2CC2)Cc2cc(NC(=O)c3cnn4cccnc34)c(N3CCC(F)(CO)CC3)cc2O1` [Example 161, (R)—N-(2-Cyclopropyl-6-(4-fluoro-4-(hydroxymethyl)piperidin-1-yl)-2-methyl-2,3-dihydrobenzofuran-5-yl)pyrazolo[1,5-a]pyrimidine-3-carboxamide], the Ki is reported as 3.8 nM.
For `C[C@@]1(C2CC2)Cc2cc(NC(=O)c3cnn4cccnc34)c(N3CCC(F)(CO)CC3)cc2O1` [Example 162, (S)—N-(2-Cyclopropyl-6-(4-fluoro-4-(hydroxymethyl)piperidin-1-yl)-2-methyl-2,3-dihydrobenzofuran-5-yl)pyrazolo[1,5-a]pyrimidine-3-carboxamide], the Ki was 4.5 nM.
Work on `C[C@]1(CO)Cc2cc(NC(=O)c3cnn4cc(Cl)cnc34)c(N3CCC(CO)CC3)cc2O1` [Example 163, (R)-6-Chloro-N-(2-(hydroxymethyl)-6-(4-(hydroxymethyl)piperidin-1-yl)-2-methyl-2,3-dihydrobenzofuran-5-yl)pyrazolo[1,5-a]pyrimidine-3-carboxamide] yielded a Ki of 3.9 nM.
`C[C@@]1(CO)Cc2cc(NC(=O)c3cnn4cc(Cl)cnc34)c(N3CCC(CO)CC3)cc2O1` [Example 164, (S)-6-Chloro-N-(2-(hydroxymethyl)-6-(4-(hydroxymethyl)piperidin-1-yl)-2-methyl-2,3-dihydrobenzofuran-5-yl)pyrazolo[1,5-a]pyrimidine-3-carboxamide] was tested, and the Ki was 2.8 nM.
Compound `C[C@@]1(CO)Cc2cc(NC(=O)c3cnn4cc(Cl)cnc34)c(N3CCOCC3)cc2O1` [Example 165, (S)-6-Chloro-N-(2-(hydroxymethyl)-2-methyl-6-morpholino-2,3-dihydrobenzofuran-5-yl)pyrazolo[1,5-a]pyrimidine-3-carboxamide] has a Ki of 5.6 nM.
Work on `CC1(C)Cc2cc(NC(=O)c3cnn4cc(Cl)cnc34)c(N3CCC4(CCOC4)CC3)cc2O1` [Example 167, 6-Chloro-N-(2,2-dimethyl-6-(2-oxa-8-azaspiro[4.5]decan-8-yl)-2,3-dihydrobenzofuran-5-yl)pyrazolo[1,5-a]pyrimidine-3-carboxamide] yielded a Ki of 2.8 nM.
Work on `CC1(CO)Cc2cc(NC(=O)c3cnn4cc(Cl)cnc34)c(N3CCN(CC(F)F)CC3)cc2O1` (centres unmarked) [Example 168] yielded a Ki of 3.6 nM.
`C[C@]1(CO)Cc2cc(NC(=O)c3cnn4cc(Cl)cnc34)c(N3CCN(CC(F)F)CC3)cc2O1` [Example 170, (R)-6-Chloro-N-(6-(4-(2,2-difluoroethyl)piperazin-1-yl)-2-(hydroxymethyl)-2-methyl-2,3-dihydrobenzofuran-5-yl)pyrazolo[1,5-a]pyrimidine-3-carboxamide] showed a Ki of 3 nM.
`C[C@]1(CO)Cc2cc(NC(=O)c3cnn4cccnc34)c(OC(F)(F)F)cc2O1` [Example 171, (R)—N-(2-(Hydroxymethyl)-2-methyl-6-(trifluoromethoxy)-2,3-dihydrobenzofuran-5-yl)pyrazolo[1,5-a]pyrimidine-3-carboxamide] was tested, and the Ki was 38 nM.
For `C[C@@]1(CO)Cc2cc(NC(=O)c3cnn4cccnc34)c(OC(F)(F)F)cc2O1` [Example 172, (S)—N-(2-(hydroxymethyl)-2-methyl-6-(trifluoromethoxy)-2,3-dihydrobenzofuran-5-yl)pyrazolo[1,5-a]pyrimidine-3-carboxamide], the Ki was 16 nM.
`O=C(Nc1cc2c(cc1N1CCOCC1)C(=O)N(CC(F)(F)F)C2)c1cnn2cccnc12` [Example 173, N-[6-Morpholino-1-oxo-2-(2,2,2-trifluoroethyl)isoindolin-5-yl]pyrazolo[1,5-a]pyrimidine-3-carboxamide] gave a Ki of 29 nM.
`O=C(Nc1cc2c(cc1N1CCOCC1)C(=O)N(CC(F)F)C2)c1cnn2cccnc12` [Example 174, N-[2-(2,2-difluoroethyl)-6-morpholino-1-oxo-isoindolin-5-yl]pyrazolo[1,5-a]pyrimidine-3-carboxamide] gave a Ki of 20 nM.
Work on `CC(C)(O)CCN1Cc2cc(NC(=O)c3cnn4cccnc34)c(N3CCOCC3)cc2C1=O` [Example 175, N-[2-(3-hydroxy-3-methyl-butyl)-6-morpholino-1-oxo-isoindolin-5-yl]pyrazolo[1,5-a]pyrimidine-3-carboxamide] yielded a Ki of 2.2 nM.
For `CC(C)(O)CN1Cc2cc(NC(=O)c3cnn4cccnc34)c(N3CCOCC3)cc2C1=O` [Example 176, N-[2-(2-hydroxy-2-methyl-propyl)-6-morpholino-1-oxo-isoindolin-5-yl]pyrazolo[1,5-a]pyrimidine-3-carboxamide], the Ki was 51 nM.
